{
  "source": "patent EP1125931A1",
  "about": "“Biocidal alkyl-substituted-(hetero)aryl-ketoxime-O-ethers and the production method thereof” (Hunan Research Institute of Chemical Industry, priority 2000, dated 2001)",
  "key": {"Spinach army worm": {"tested_on": "Spinach army worm", "assay": "Biological activity (LC50) against spinach army worm", "format": "in vivo"}, "Spotted cutworm": {"tested_on": "Spotted cutworm", "assay": "Biological activity (LC50) against spotted cutworm", "format": "in vivo"}, "American tobacco cutworm": {"tested_on": "American tobacco cutworm", "assay": "Biological activity (LC50) against American tobacco cutworm", "format": "in vivo"}, "Green peach aphid": {"tested_on": "Green peach aphid", "assay": "Biological activity (LC50) against green peach aphid", "format": "in vivo"}, "Mythimne separata": {"tested_on": "Mythimne separata", "assay": "Test for the biological activity against Mythimne separata (spray, Petri dish with corn fragments)", "format": "in vivo", "details": "after 24 hours", "method": "Emulsion oil or wettable powder of the alkyl-substituted-(hetero)aryl-ketoxime-o-ether, intermediate ketone, or the active oxime compound of this invention prepared by the procedure described in the Examples for preparing a controlling agent in agriculture described above was diluted with water to prepare a solution of agricultural chemical having a certain concentration.\nTen heads of Mythimne separata and 5 pieces of corn fragments were placed in a Petri dish, and it was sprayed with a certain amount of agricultural chemical solution. After the exposure, it was kept in a room for normal cultivation. After 24 hours, number of live and dead insects were counted. Test was run 3 times, and results were averaged. […] Some compounds (I) [such as Code No. 5, 8, and 30] shown in Table 1] gave 100% lethal rate even when the concentration was lower than 500 ppm."}, "aphids Aphis fabae": {"tested_on": "aphids Aphis fabae", "assay": "Test for the biological activity against aphids (seedling dip)", "format": "in vivo", "details": "after 24 hours; for lethal rate: at a lower concentration (than 250 ppm); for aphids killed: concentration 250 ppm (content of effective component), average of 3 tests", "method": "Emulsion oil or wettable powder of the alkyl-substituted-(heteroaryl-ketoxime-o-ether, ketone intermediate or active oxime compound of this invention prepared by the method described in the Example for preparing a controlling agent in agriculture was diluted with water to prepare a solution of agricultural chemical having a certain concentration. Aphids were inoculated in the new seedlings (more than 15). Then, the seedlings, together with the aphids, were dipped in the solution of agricultural agent for 5 seconds, removed, and excess liquid was drained. They were placed in a water-absorbing sponge, and held by glass rods. After 24 hours, the number of live and dead aphids was examined. Test was run 3 times, and the results were averaged. With a series of compound (I) [Code No. 5, 8, 21, 22, 23, 30, 33, 46, 47, 48], the aphids were killed 100% when the concentration was 250 ppm (calculated as the content of effective component). Some compounds (I) [Code No. 5, 8, and 30 in Table 1] gave 100% lethal rate with the aphids, even at a lower concentration."}, "[1]": {"tested_on": "leafhopper Nephotetlix cimeticeps", "assay": "Test for the biological activity against leafhopper (rice seedling dip)", "format": "in vivo", "details": "after 24 hours; for kill rate: at a lower concentration (than 250 ppm); for leafhoppers killed: concentration 250 ppm (content of effective component), average of 3 tests", "method": "Emulsion oil or wettable powder of the alkyl-substituted-(hetero)aryl-ketoxime-o-ether, ketone intermediate, or active oxime compound of this invention prepared by the method described in the Example for preparing a controlling agent in agriculture was diluted with water to prepare a solution of agricultural chemical having a certain concentration. Rice seedlings (second semester) were dipped in the solution of agricultural agent for 5 seconds, and then removed. It was drained and then placed in a large test tube. Each test tube contained 20 seedlings. Then, 20 leafhoppers (5th instar) were introduced in the tube, and the mouth of the tube was covered with a white cheesecloth. The tube was kept at room temperature, and number of live and dead leafhoppers was examined after 24 hours. Test was run 3 times, and results were averaged."}, "fungal pathogens": {"tested_on": "fungal pathogens", "assay": "Test for antifungal activity (mycelial growth on PDA media)", "format": "cell-based", "details": "against one or more fungal pathogens; concentration 100 ppm; 72 hours of cultivation; read-out: growth inhibition rate", "method": "Alkyl-substituted-(hetero)aryl-ketoxime-o-ether, ketone intermediate, or active oxime compound of this invention was diluted with an appropriate diluting agent (such as propanone) to prepare a parent solution having a certain concentration. One ml of this solution was taken with a pipette into 50 ml of molten PDA media. After shaking thoroughly, it was poured into two Petri dishes, to create duplicate. After cooling, a mycelial pad (diameter = about 4 mm) was taken and inoculated on the center of the culture dish. The diluting agent was used as the control. After inoculation, the dish was kept in an incubator set at an appropriate temperature. After 72 hours of cultivation, length (diameter of the colony) of the growth of mycelia was measured, and fungal growth inhibition rate was calculated."}, "[2]": {"details": "concentration 500 ppm (content of effective component), average of 3 tests"}, "[3]": {"details": "concentration lower than 500 ppm"}},
  "note": "Like-named read-outs stand apart in the source and are kept apart here.",
  "data": [
    {"smiles": "CSCC(=NOCc1cccc(Oc2ccccc2)c1)c1ccc(Cl)cc1", "note": "[Code No. 5 E-form]", "values": [
      {"measurement": "LC50", "setting": "Spinach army worm", "result": "LC50 (ppm) < 5"},
      {"measurement": "LC50", "setting": "Spotted cutworm", "result": "LC50 (ppm) < 5"},
      {"measurement": "LC50", "setting": "American tobacco cutworm", "result": "LC50 (ppm) < 10"},
      {"measurement": "LC50", "setting": "Green peach aphid", "result": "LC50 (ppm) > 100"}
    ]},
    {"smiles": "CSCC(=NOCc1cccc(Oc2ccccc2)c1)c1ccc(Cl)cc1", "note": "[Code No. 5]", "values": [
      {"measurement": "lethal rate", "setting": "Mythimne separata; [2]", "result": "exceeding 100%"},
      {"measurement": "lethal rate", "setting": "Mythimne separata; [3]", "result": 100, "unit": "%"},
      {"measurement": "lethal rate", "setting": "aphids Aphis fabae", "result": 100, "unit": "%"},
      {"measurement": "aphids killed", "setting": "aphids Aphis fabae", "result": 100, "unit": "%"},
      {"measurement": "kill rate", "setting": "[1]", "result": 100, "unit": "%"},
      {"measurement": "leafhoppers killed", "setting": "[1]", "result": 100, "unit": "%"}
    ]},
    {"smiles": "CSC(C)C(=NOCc1cccc(Oc2ccccc2)c1)c1ccc(Cl)cc1", "note": "(stereo not shown) [Code No. 30 E-form, 1-(4-chlorophenyl)-2-methylthio-O-((3-phenoxyphenyl)methyl) 1-propanone oxime]", "values": [
      {"measurement": "LC50", "setting": "Spinach army worm; listed as 30 E-form", "result": "LC50 (ppm) < 5"},
      {"measurement": "LC50", "setting": "Spotted cutworm; listed as 30 E-form", "result": "LC50 (ppm) < 1.5"},
      {"measurement": "LC50", "setting": "American tobacco cutworm; listed as 30 E-form", "result": "LC50 (ppm) < 5"},
      {"measurement": "LC50", "setting": "Green peach aphid; listed as 30 E-form", "result": "LC50 (ppm) < 15"}
    ]},
    {"smiles": "CSC(C)C(=NOCc1cccc(Oc2ccccc2)c1)c1ccc(Cl)cc1", "note": "(stereo not shown) [Code No. 30 Z-form, 1-(4-chlorophenyl)-2-methylthio-O-((3-phenoxyphenyl)methyl) 1-propanone oxime]", "values": [
      {"measurement": "LC50", "setting": "Spinach army worm; listed as 30 Z-form", "result": "LC50 (ppm) > 150"},
      {"measurement": "LC50", "setting": "Spotted cutworm; listed as 30 Z-form", "result": "LC50 (ppm) > 150"},
      {"measurement": "LC50", "setting": "American tobacco cutworm; listed as 30 Z-form", "result": "LC50 (ppm) > 150"},
      {"measurement": "LC50", "setting": "Green peach aphid; listed as 30 Z-form", "result": "LC50 (ppm) > 150"}
    ]},
    {"smiles": "CSC(C)C(=NOCc1cccc(Oc2ccccc2)c1)c1ccc(Cl)cc1", "note": "(stereo not shown) [Code No. 30, 1-(4-chlorophenyl)-2-methylthio-O-((3-phenoxyphenyl)methyl) 1-propanone oxime]", "values": [
      {"measurement": "lethal rate", "setting": "Mythimne separata; [2]", "result": "exceeding 100%"},
      {"measurement": "lethal rate", "setting": "Mythimne separata; [3]", "result": 100, "unit": "%"},
      {"measurement": "lethal rate", "setting": "aphids Aphis fabae", "result": 100, "unit": "%"},
      {"measurement": "aphids killed", "setting": "aphids Aphis fabae", "result": 100, "unit": "%"},
      {"measurement": "kill rate", "setting": "[1]", "result": 100, "unit": "%"},
      {"measurement": "leafhoppers killed", "setting": "[1]", "result": 100, "unit": "%"}
    ]},
    {"smiles": "CSCC(=NO)c1ccc(Cl)cc1", "note": "[compound (III) Code No. 5, 1-(4-chlorophenyl)-2-methylthio ethanone oxime]", "values": [
      {"measurement": "inhibition at 100 ppm", "setting": "fungal pathogens", "result": "> 90", "unit": "%"}
    ]}
  ]
}
